# Assay results taken from patent US20090227503A1, “PARATHYROID HORMONE TREATMENT FOR ENHANCED ALLOGRAFT AND TISSUE-ENGINEERED RECONSTRUCTION OF BONE DEFECTS” (UNIVERSITY OF ROCHESTER, priority 2008, published 2009).
# What was measured:
# [1] = tested on: critical 4 mm femoral defects; assay: PLA and PLA/βTCP scaffold reconstruction of critical 4 mm femoral defects, micro-CT and torsion (Example 2); type: in vivo, mouse
# Source text: (scale bars 25 in B & C represent 200 microns. Arrow head in panel C points to βTCP particles). Titanium pins 30 were passed through the lumen of the scaffolds 15 (panel D) to be used for fixation of the scaffolds when implanted as standalone femoral graft substitutes in critical 4 mm femoral defects in our previously established mouse model (see Example 1). The grafted animals were either treated with daily (5 days/week) injections of PTH or left untreated (Controls). […] When grafts were harvested at 9 weeks and following micro-CT imaging, scaffold-grafted femurs were tested in torsion at a rate of 1°/sec. […] The scaffold-grafted femurs were tested in torsion to determine their biomechanical properties, including maximum torque (panels A&B), torsional rigidity (panels C&D), and ultimate normalized rotation or twist (panels E&F). Panels A, C, and E show the average properties for both scaffold types in control and PTH treated animals. Panels B, D, and F show the maximum torque, torsional rigidity, and ultimate twist, respectively, of specimens that developed a bridging union compared to non-union control and PTH-treated specimens. Data are presented as mean+SEM. Asterisk indicates significant differences from control (p<0.05).
# grafted femurs = assay: Mouse femoral allograft, micro-CT of grafted femurs (Example 4); type: in vivo, mice
# Protocol: Four-mm long bone allografts were harvested from donor mice, and were processed and implanted into […] defects 195 in the femur of other mice and secured in place using a stainless steel intramedullary pin 190, as shown in FIG. 13. One week after surgery, daily injections of 40 μg/kg hrPTH (1-34) (Lilly, Inc., Indianapolis, Ind.) were initiated in half of the mice, while the others received injections of saline control. Weekly x-rays were taken to monitor progression (Faxitron X-Ray LLC, Wheeling, Ill.). One cohort of the study groups used 14 mice from each treatment (PTH and control) for imaging and mechanical material testing and were sacrificed 6 weeks after surgery. Each femur was harvested by disarticulating the hip and knee and removing the intramedullary stainless-steel pin. Specimens were moistened with saline and frozen at -20° C. until thawed for micro-CT imaging and torsion testing. Specimens were scanned at […] isotropic resolution using the Scanco VivaCT 40 (Scanco Medical AG, Bassersdorf, Switzerland). From these 3D images, the graft and callus bone volumes (BVGraft, BVCallus) were measured by manual segmentation, followed by standardized thresholding at a grayscale corresponding to 750 mgHA/cm^3. The cross-sectional polar moment of […]) were computed for each slice throughout the grafted region and the maximum, minimum and average […]) were investigated to determine their contribution to the biomechanics of the grafted femurs. The Union Ratio was also calculated. The Union Ratio measures the graft surface area upon which mineralized callus has formed. If the voxels adjacent to the graft surface are boney callus, the area of that region of the graft is measured and normalized to the total graft surface area. Imaging data (not shown) indicated the bare surface of the graft in blue, with regions of union to the callus depicted as red. Each half (proximal and distal) of the graft was evaluated separately and the lesser ratio of union area to total graft surface area was given as the Union Ratio for that specimen. Callus formation that bridged from host-to-host over the graft was determined by evaluating serial axial cross sections from micro-CT images and given a binary result. These samples were then mechanically tested in torsion. Yield torque (TYield), ultimate torque (TUlt), torsional rigidity (TR), toughness (or work to failure) and the twist at ultimate torque were determined for each specimen. Finally, the mode of failure for each specimen was determined using an x-ray image analysis (not shown). Bone volume quantification was performed from micro-CT imaging. Quantification of micro-CT results for a control and PTH treated (FIGS. 16E-H) specimen was performed. Cross sectional polar moment of inertia, graft were determined. Callus and intramedullary callus bone volumes were quantified for each specimen in a region of interest that extended from the proximal axial slice containing bone graft through the distal slice. These regions were manually segmented and quantified for bone volume, bone mineral density and bone mineral content at a threshold corresponding to 750 mgHA/cm^3. The total depth of penetration of callus into the intramedullary cavity from both ends was also measured. The trabecular-like region within the shell of the exterior callus was segmented for trabecular analysis to quantify BVF, Tb.No., Tb.Th., and Tb.Sp.
# [2] = 40 μg/kg hrPTH (1-34) daily from week 1, 6 weeks after surgery, mean, n = 14
# [3] = vs saline, 6 weeks after surgery
structure (smiles),measurement,setting,value
"CC[C@H](C)[C@H](NC(=O)[C@H](CCC(=O)O)NC(=O)[C@H](CO)NC(=O)[C@@H](NC(=O)[C@@H](N)CO)C(C)C)C(=O)N[C@@H](CCC(N)=O)C(=O)N[C@@H](CC(C)C)C(=O)N[C@@H](CCSC)C(=O)N[C@@H](Cc1cnc[nH]1)C(=O)N[C@@H](CC(N)=O)C(=O)N[C@@H](CC(C)C)C(=O)NCC(=O)N[C@@H](CCCCN)C(=O)N[C@@H](Cc1cnc[nH]1)C(=O)N[C@@H](CC(C)C)C(=O)N[C@@H](CC(N)=O)C(=O)N[C@@H](CO)C(=O)N[C@@H](CCSC)C(=O)N[C@@H](CCC(=O)O)C(=O)N[C@@H](CCCN=C(N)N)C(=O)N[C@H](C(=O)N[C@@H](CCC(=O)O)C(=O)N[C@@H](Cc1c[nH]c2ccccc12)C(=O)N[C@@H](CC(C)C)C(=O)N[C@@H](CCCN=C(N)N)C(=O)N[C@@H](CCCCN)C(=O)N[C@@H](CCCCN)C(=O)N[C@@H](CC(C)C)C(=O)N[C@@H](CCC(N)=O)C(=O)N[C@@H](CC(=O)O)C(=O)N[C@H](C(=O)N[C@@H](Cc1cnc[nH]1)C(=O)N[C@@H](CC(N)=O)C(=O)N[C@@H](Cc1ccccc1)C(=O)O)C(C)C)C(C)C [PTH, PTH (1-34)]",animals that developed a mineralized callus bridging the defect (union),"[1]; 9 weeks post-reconstruction, both scaffolds, daily (5 days/week) PTH, none in controls",30%
same,torsion behavior of bridged grafts,"[1]; 9 weeks, torsion at 1°/sec",prototypical brittle bone torsion behavior
same,"biomechanical properties of scaffold-grafted femurs (maximum torque, torsional rigidity, ultimate twist)","[1]; 9 weeks, vs control",improved the biomechanical properties of the scaffold-grafted femurs especially in femurs with bridging unions
same,volume of the mineralized callus,"[1]; PLA and PLA/βTCP scaffolds, 6 and 9 weeks post-reconstruction, vs control",increased the volume of the mineralized callus regardless of the scaffold type
same,BMCCallus,grafted femurs; [2],2.7 mgHA
same,BMDCallus,grafted femurs; [2],667 mgHA/cc
same,BVCallus,grafted femurs; [2],1.04 mm^3/mm
same,BVGraft,grafted femurs; [2],0.82 mm^3/mm
same,BVIntramed,grafted femurs; [2],0.2 mm^3/mm
same,Callus Tb. N.,grafted femurs; [2],13.2
same,Callus Tb. Sp.,grafted femurs; [2],0.065
same,Callus Tb. Th.,grafted femurs; [2],0.149
same,Callus trabecular BVF,grafted femurs; [2],0.576
same,Intramed Penetration Depth,grafted femurs; [2],2.22 mm
same,PMIAve,grafted femurs; [2],1.16 mm^4
same,PMIMax,grafted femurs; [2],2.17 mm^4
same,PMIMin,grafted femurs; [2],0.51 mm^4
same,Union Ratio,grafted femurs; [2],0.277
same,ratio of callus BMCPTH:BMCSaline,grafted femurs; 6 weeks,1.67
same,maximum outer radius of the callus,"grafted femurs; 6 weeks, saline 1.8±0.2 mm",1.7±0.3 mm
same,specimens with bridging over the graft from host-to-host,"grafted femurs; 6 weeks, saline 6 of 14",8 of 14
same,Union Ratio greater in PTH treated animals,"grafted femurs; across all samples, vs saline",2.8 fold
same,Intramedullary penetration depth,"grafted femurs; grafts from PTH-treated animals, saline 1.7±0.6 mm",2.2±0.7 mm
same,Union Ratio of the single PTH-treated specimen of FIG. 15H,"grafted femurs; one specimen, saline control specimen 0.02",0.31
same,"bone mineral density of the callus, less dense by","grafted femurs; vs saline, 6 weeks",14%
same,"bone volume fraction within the callus, greater by","grafted femurs; vs saline, 6 weeks",52%
same,graft bone volume (graft resorption),"grafted femurs; vs saline, 6 weeks",not different between treatment groups
same,"net callus total mineral content, greater by","grafted femurs; vs saline, 6 weeks",67%
same,increase in BVCallus,grafted femurs; [3],93%
same,increase in BVIntramed,grafted femurs; [3],217%
same,increase in PMIAve,grafted femurs; [3],38%
same,increase in PMIMax,grafted femurs; [3],26%
same,"Union Ratio, greater by","grafted femurs; vs saline, 6 weeks, p<0.01",76%
same,"Intramedullary penetration depth, greater by","grafted femurs; vs saline, p=0.12",28%
